The record followed here is patent US12187758B2 (ROME Therapeutics, Inc., priority 2022, dated 2025).

pIC50: −log10 of the molar value. A value given as a limit tells only on which side of the number the result lay.

Common to all, as to type: cell-based
For data set [1], the system named is PC3 cells. Kind of data set: Mitochondria toxicity assay with PC3 cells, cytotoxicity (Cell Titer Glo). Conditions: Homo sapiens, PC-3, 120 h, 5 days treatment. The essentials: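 PC3 cells in F-12K with 10% FBS exposed to a compound dose titration for 5 days at 37° C, 5% CO2. Viability by Cell Titer Glo luminescence after 30 min at room temperature; values binned A (<1.0 μM) to E (>100.0 μM).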

Data set [2] has as its system SDH-A (succinate dehydrogenase-A). Briefly: Mitochondria toxicity assay with PC3 cells, in-cell ELISA SDH-A. Conditions: 5 days treatment. In a few lines:
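This in-cell ELISA was run on fixed, permeabilized PC3 cells after 5-day exposure to titrated compound, with cytotoxicity measured on a duplicate plate. Results are reported as categories A (<1.0 μM) to E (>100.0 μM).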
In general terms: ELISA stands for enzyme-linked immunosorbent assay.

Data set [3] concerns phosphorylated TANK-binding kinase 1 (pTBK1). Briefly: UVB-induced pTBK1 in HaCaT cells. The following applies: for pIC50: Homo sapiens, light or radiation study, pTBK1 response curves, 72 hours compound treatment, UVB. The protocol:
pTBK1 is an important signaling molecule in regulating inflammatory responses. HaCaT cells were plated in 6-well plates at a density of ˜100 k/well in HaCaT media (DMEM, optimized 1× (Addex Bio)+ 1% pen strep (Gibco)^+ 5% heat inactivated fetal bovine serum (Gibco)). The cells were then cultured at 37° C. overnight. The next day, the cells were treated with the test compounds. Each test compound was diluted and added to media aliquots to provide desired concentrations. To add the test compound+media mixture, an equivalent amount of media from each well was aspirated and then replenished with the media dosed with the test compound. The cells were then cultured for an additional 72 hours with compound treatment prior to UVB exposure.
The media was then aspirated from the wells, with the remaining cells at least 80% confluent in each well. One mL of PBS was then added to each well, and the plate was then placed under a UVB lamp. A UVB sensor was positioned near the plate to register the plate's exposure. The cells were exposed to the UVB light until they reached 0.1 mJ/cm2. Then the plate was covered and transferred to a sterile hood for processing.
The PBS was aspirated out of the wells, and the wells were replenished with 3 mL fresh culture media. The cells were then cultured for an additional 24 hours, and samples were processed 24 hours post-UVB exposure. To process the samples, the media was aspirated, the plate placed on ice, and the cells washed with cold PBS, which was then aspirated off. Another 1 mL of cold PBS was added to each well. The cells were then scraped in the cold PBS solution and transferred to conical tubes on ice. The cells were then spun at ≥1000 RCF at 4° C. for 5 minutes. The cells were then resuspended in 1 mL of cold PBS and transferred to a microcentrifuge tube. The cells were spun at ≥1000 RCF at 4° C. for another 5 minutes, and the PBS was aspirated off. The cell pellet was prepared for lysis.
A RIPA lysis buffer (#BP-115, Boston BioProducts) was added to a Halt protease and […] inhibitor cocktail (#78440, ThermoFisher), and the mixture was cooled on ice. About 30 μL of the lysis buffer mix was added to the cells. The samples were briefly vortexed and then incubated on ice for at least 15 minutes. The cells were then spun≥1000 RCF at 4° C. for 5 minutes and the supernatant was transferred to a clean tube. The protein concentration of the cell lysate was measured using Pierce™ Rapid Gold BCA Protein Assay Kit #AF3225 (ThermoFisher). ELISA analysis was run on select samples using one of the following kits: • a. FastScan™ Phospho-TBK1/NAK (Ser172) ELISA Kit #46948 (Cell Signaling Technologies) • b. FastScan™ Total TBK1/NAK ELISA Kit #15816 (Cell Signaling Technologies) • c. FastScan™ Phospho-STING (Ser366) ELISA Kit #82083 (Cell Signaling Technologies) • d. FastScan™ Phospho-IRF-3 (Ser396) ELISA Kit #50386 (Cell Signaling Technologies) • e. FastScan™ Total IRF-3 ELISA Kit #29771 (Cell Signaling Technologies) • f. Phospho-NAK/TBK1 (S172) ELISA Kit (ab279952) (Abcam) • g. Phospho-IRF3 (S386) ELISA Kit (ab279833) (Abcam) Part II—Results
In the table “A” represents values≤0.50 μM; “B” represents values from >0.50 μM to ≤2.0 μM; “C” represents values from >2.0 μM to ≤5.0 μM; “D” represents values from >5.0 μM to ≤10 μM; and “E” represents values>10 μM.

Broadly, the pIC50 is the IC50 on a negative log10 scale, so that one unit is a factor of ten. A lower pIC50 goes with a large IC50. In the case of `Nc1ccn([C@H]2C[C@H](O)[C@](CO)(C3CC3)O2)c(=O)n1` [Compound 16, 4-amino-1-((2R,4S,5R)-5-cyclopropyl-4-hydroxy-5-(hydroxymethyl)tetrahydrofuran-2-yl)pyrimidin-2(1H)-one], the results for the pIC50 in data set [1], in data set [2] and in data set [3] were under 4.00, under 4.00 and under 5.00, respectively.

In the case of `Nc1nc(=O)n([C@@H]2O[C@@](CO)(CF)[C@@H](O)[C@@H]2O)cc1F` [Compound 72, 4-amino-5-fluoro-1-((2R,3S,4S,5R)-5-(fluoromethyl)-3,4-dihydroxy-5-(hydroxymethyl)tetrahydrofuran-2-yl)pyrimidin-2(1H)-one], the pIC50 in data set [1] was 4.00 to 4.30; in data set [2], under 4.00; in data set [3], 5.00 to 5.30.

As for `Nc1nc(=O)n([C@@H]2O[C@@](CO)(CCl)[C@@H](O)[C@@H]2F)cc1F` [Compound 67, 4-amino-1-[(2R,3S,4R,5R)-5-(chloromethyl)-3-fluoro-4-hydroxy-5-(hydroxymethyl)oxolan-2-yl]-5-fluoropyrimidin-2-one], the negative logarithm of the IC50 (pIC50) was under 4.00 in data set [1], under 4.00 in data set [2] and 5.30 to 5.70 in data set [3].

`[N-]=[N+]=N[C@]1(CO)O[C@@H](n2cc(F)c(N)nc2=O)C[C@@H]1O` [Compound 61, 4-amino-1-((2R,4S,5R)-5-azido-4-hydroxy-5-(hydroxymethyl)tetrahydrofuran-2-yl)-5-fluoropyrimidin-2(1H)-one]: the pIC50 in data set [1] is under 4.00; in data set [2], under 4.00; in data set [3], under 5.00.

With `C[C@@H]1[C@H](n2ccc(N)nc2=O)O[C@](C)(CO)[C@H]1O` [Compound 19, 4-amino-1-((2R,3S,4S,5R)-4-hydroxy-5-(hydroxymethyl)-3,5-dimethyltetrahydrofuran-2-yl)pyrimidin-2(1H)-one], the pIC50 in data set [1] was 4.00 to 4.30; in data set [2], 4.30 to 5.00; in data set [3], under 5.00.

With `Nc1ncnc2c1ncn2[C@H]1C[C@H](O)[C@](CO)(CCl)O1` [Compound 15, (2R,3S,5R)-5-(6-amino-9H-purin-9-yl)-2-(chloromethyl)-2-(hydroxymethyl)tetrahydrofuran-3-ol], the negative logarithm of the IC50 (pIC50) in data set [1] is under 4.00; in data set [2] it was under 4.00; in data set [3], under 5.00.

As to `CC[C@]1(CO)O[C@@H](n2ccc(N)nc2=O)[C@@H](F)[C@@H]1O` [Compound 51, 4-amino-1-((2R,3S,4R,5R)-5-ethyl-3-fluoro-4-hydroxy-5-(hydroxymethyl)tetrahydrofuran-2-yl)pyrimidin-2(1H)-one], the pIC50 in data set [1] is under 4.00; in data set [2], under 4.00; in data set [3], under 5.00.

As to `CO[C@@H]1[C@H](n2ccc(N)nc2=O)O[C@@](CO)(CCl)[C@H]1O` [Compound 13, 4-amino-1-((2R,3S,4S,5R)-5-(chloromethyl)-4-hydroxy-5-(hydroxymethyl)-3-methoxytetrahydrofuran-2-yl)pyrimidin-2(1H)-one], the negative-log IC50 (pIC50) is under 4.00 in data set [1], under 4.00 in data set [2] and under 5.00 in data set [3].

In the case of `Nc1ccn([C@@H]2O[C@@](CO)(CCl)[C@@H](O)[C@@H]2F)c(=O)n1` [Compound 40, 4-amino-1-((2R,3S,4R,5R)-5-(chloromethyl)-3-fluoro-4-hydroxy-5-(hydroxymethyl)tetrahydrofuran-2-yl)pyrimidin-2(1H)-one], the negative-log IC50 (pIC50) in data set [1] is under 4.00; in data set [2], under 4.00; in data set [3] it was 5.30 to 5.70.

Turning to `Nc1ccn([C@H]2C[C@H](O)[C@](CO)(CCl)O2)c(=O)n1` [Compound 2, 4-amino-1-((2R,4S,5R)-5-(chloromethyl)-4-hydroxy-5-(hydroxymethyl)tetrahydrofuran-2-yl)pyrimidin-2(1H)-one], the pIC50 in data set [1] is under 4.00; in data set [2], under 4.00; in data set [3] it was at least 6.30.

As to `Nc1nc(=O)n([C@H]2C[C@H](O)[C@](CO)(CCl)O2)cc1F` [Compound 14, 4-amino-1-((2R,4S,5R)-5-(chloromethyl)-4-hydroxy-5-(hydroxymethyl)tetrahydrofuran-2-yl)-5-fluoropyrimidin-2(1H)-one], the pIC50 in data set [1] was under 4.00; in data set [2], under 4.00; in data set [3], 5.70 to 6.30. The molecule also showed a cytotoxicity at concentrations in data set [3] of at least 30 µM.

As to `C#C[C@]1(CO)O[C@@H](n2cnc3c(N)nc(Cl)nc32)C[C@@H]1O` [Compound 25], the pIC50 in data set [1] and in data set [2] was under 4.00 each time.

In the case of `Nc1nc(=O)n([C@@H]2O[C@@](CO)(CF)[C@@H](O)[C@@H]2F)cc1F` [Compound 85, 4-amino-5-fluoro-1-[(2R,3S,4R,5R)-3-fluoro-5-(fluoromethyl)-4-hydroxy-5-(hydroxymethyl)oxolan-2-yl] pyrimidin-2-one], the pIC50 in data set [1] was under 4.00; in data set [2], under 4.00; in data set [3] it was 5.00 to 5.30.

Take `CC[C@]1(CO)O[C@@H](n2ccc(N)nc2=O)C[C@@H]1O` [Compound 44, 4-amino-1-((2R,4S,5R)-5-ethyl-4-hydroxy-5-(hydroxymethyl)tetrahydrofuran-2-yl)pyrimidin-2(1H)-one]: the values for the pIC50 in data set [1], in data set [2] and in data set [3] were under 4.00, under 4.00 and under 5.00, respectively.

On to `C[C@@H]1[C@H](n2ccc(N)nc2=O)O[C@@](CO)(CCl)[C@H]1O` [Compound 12, 4-amino-1-((2R,3S,4S,5R)-5-(chloromethyl)-4-hydroxy-5-(hydroxymethyl)-3-methyltetrahydrofuran-2-yl)pyrimidin-2(1H)-one], for which the negative-log IC50 (pIC50) in data set [1] was under 4.00; in data set [2], under 4.00; in data set [3], under 5.00.

For `Nc1nc(=O)n([C@H]2C[C@H](O)[C@](CO)(CBr)O2)cc1F` [Compound 88, 4-amino-1-((2R,4S,5R)-5-(bromomethyl)-4-hydroxy-5-(hydroxymethyl)tetrahydrofuran-2-yl)-5-fluoropyrimidin-2(1H)-one], the negative logarithm of the IC50 (pIC50) in data set [1] was under 4.00; in data set [2], under 4.00; in data set [3], under 5.00.
